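Interpolation was linear, between the two tested concentrations surrounding the appropriate level; five concentrations were tested over 48 hours in 96-well plates. GI50 is the concentration that inhibits growth by half.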 Active and inactive are the calls of the source. No stated cut-off is given here; in the data, active = GI50 up to about 1.1 µM and inactive = higher.
What was measured:
Experiment in all cases: NCI anticancer screen, dose series, 48 h
[1] = system: 786-0
[2] = system: BT-549
[3] = system: CCRF-CEM
[4] = system: HCC 2998
[5] = system: HCT-116
[6] = system: HCT-15
[7] = system: KM12
[8] = system: MCF7
[9] = system: MDA-MB-231
[10] = system: NCI-H522
[11] = system: OVCAR-3
[12] = system: SF-539
[13] = system: SK-MEL-28
[14] = system: SNB-19
[15] = system: SR
[16] = system: T47D
[17] = system: UACC-257
[18] = system: UACC-62
[19] = system: UO-31
[20] = system: M19-MEL

Compound	GI50 [1]	GI50 [2]	GI50 [3]	GI50 [4]	GI50 [5]	GI50 [6] [µM]	GI50 [7]	GI50 [8]	GI50 [9]	GI50 [10]	GI50 [11]	GI50 [12]	GI50 [13]	GI50 [14]	GI50 [15]	GI50 [16]	GI50 [17]	GI50 [18]	GI50 [19]	GI50 [20]
O/N=C1\CCc2cc3c(cc21)CCC3	> 100 µM (inactive)	> 100 µM (inactive)	> 100 µM (inactive)	> 100 µM (inactive)	> 100 µM (inactive)	> 100	> 100 µM (inactive)	> 100 µM (inactive)	> 100 µM (inactive)	> 100 µM (inactive)	> 100 µM (inactive)	> 100 µM (inactive)	> 100 µM (inactive)	> 100 µM (inactive)	> 100 µM (inactive)	86.3 µM (inactive)	> 100 µM (inactive)	> 100 µM (inactive)	> 100 µM (inactive)	–
O=C(O)CO/N=C1/C(=C2/C(=O)Nc3ccccc32)Nc2ccccc21	63.4 µM (inactive)	51.9 µM (inactive)	43.1 µM (inactive)	33.1 µM (inactive)	39.6 µM (inactive)	35.6	2.99 µM (inactive)	36 µM (inactive)	62.8 µM (inactive)	52.6 µM (inactive)	18.8 µM (inactive)	70.3 µM (inactive)	50.8 µM (inactive)	> 100 µM (inactive)	39.5 µM (inactive)	35.8 µM (inactive)	> 100 µM (inactive)	38.4 µM (inactive)	65 µM (inactive)	–
O=C1C(Cl)C(c2cc3cc(Br)ccc3nc2Cl)N1c1ccc(F)c(Cl)c1 (stereo unspecified)	1.09 µM (active)	7.52 µM (inactive)	0.418 µM (active)	11.7 µM (inactive)	7.94 µM (inactive)	6.44	3.21 µM (inactive)	5.96 µM (inactive)	8.09 µM (inactive)	0.275 µM (active)	4.13 µM (inactive)	1.51 µM (inactive)	14.6 µM (inactive)	9.73 µM (inactive)	1.03 µM (active)	8.09 µM (inactive)	11.4 µM (inactive)	9.12 µM (inactive)	0.118 µM (active)	–
Cc1ccc(C(=O)/C=C2\Nc3ccccc3NC2=O)cc1	2.49 µM (inactive)	22.2 µM (inactive)	99.1 µM (inactive)	11.5 µM (inactive)	2.17 µM (inactive)	56.6	17.1 µM (inactive)	9.98 µM (inactive)	2.78 µM (inactive)	2.49 µM (inactive)	2.99 µM (inactive)	4.78 µM (inactive)	5.3 µM (inactive)	10.6 µM (inactive)	15.5 µM (inactive)	2.65 µM (inactive)	12.4 µM (inactive)	2.26 µM (inactive)	4.38 µM (inactive)	–
COc1cc2c(cc1OC)-c1cc3cc(OC)c(OC)cc3c(=O)n1CC2	23.3 µM (inactive)	37.3 µM (inactive)	3.21 µM (inactive)	30.7 µM (inactive)	16.3 µM (inactive)	38.5	> 50.5 µM (inactive)	5.89 µM (inactive)	14.8 µM (inactive)	2.76 µM (inactive)	15.7 µM (inactive)	6.12 µM (inactive)	> 62.1 µM (inactive)	20.7 µM (inactive)	2.07 µM (inactive)	2.58 µM (inactive)	26.1 µM (inactive)	5.35 µM (inactive)	2.43 µM (inactive)	–
CC(=O)OC1(Sc2ccccc2)CC2[C@H]3COC(C)(C)O[C@H]3CC[C@@]2(C)CC1=O (stereo partly specified)	33.7 µM (inactive)	–	–	–	65.3 µM (inactive)	34.9	43.5 µM (inactive)	–	–	32.3 µM (inactive)	37.2 µM (inactive)	26.1 µM (inactive)	> 100 µM (inactive)	71.9 µM (inactive)	10 µM (inactive)	–	49.9 µM (inactive)	30.1 µM (inactive)	19 µM (inactive)	50.9 µM (inactive)
CC1O[C@@H]2CCCCC(=O)[C@]2(C)[C@H]1C (stereo partly specified)	> 100 µM (inactive)	–	> 100 µM (inactive)	> 100 µM (inactive)	> 100 µM (inactive)	> 100	> 100 µM (inactive)	–	–	–	> 100 µM (inactive)	–	> 100 µM (inactive)	> 100 µM (inactive)	–	–	> 100 µM (inactive)	> 100 µM (inactive)	> 100 µM (inactive)	> 100 µM (inactive)
C=CCN(c1cc(OC)c2[nH]cc(C)c2c1[N+](=O)[O-])S(C)(=O)=O	> 100 µM (inactive)	> 100 µM (inactive)	> 100 µM (inactive)	> 100 µM (inactive)	> 100 µM (inactive)	> 100	> 100 µM (inactive)	> 100 µM (inactive)	> 100 µM (inactive)	> 100 µM (inactive)	> 100 µM (inactive)	> 100 µM (inactive)	> 100 µM (inactive)	> 100 µM (inactive)	> 100 µM (inactive)	> 100 µM (inactive)	> 100 µM (inactive)	> 100 µM (inactive)	> 100 µM (inactive)	–

Source: ChEMBL document CHEMBL1201862, “PubChem BioAssay data set” (2004)
